# Laboratory results as given in BindingDB's records for patent US20250092039 (Tiger Biotherapeutics, 2025).
# Molecular target: GTPase KRas [G12V]/RAF proto-oncogene serine/threonine-protein kinase (Homo sapiens, UniProt P01116, G12V)
# Assay: KRAS/RAF1 Binding Inhibition Assay
# Procedure: The test compounds in 2% DMSO (final concentration) at various concentrations were then added to the reaction mixture and incubated for 60 minutes at 4° C.
row,IC50 [nM],SMILES
1,≤ 200,"CCc1c(F)ccc2cc(O)cc(-c3ncc4c(N5CCCNC(=O)C5)nc(OCC5(CN6CCC7(CC6)CC(CN6CCN(c8ccc9c(c8)CN([C@H]8CCC(=O)NC8=O)C9=O)CC6)C7)CC5)nc4c3F)c12 [US20250092039, Compound 93]"
2,> 200,"CCc1c(F)ccc2cc(O)cc(-c3ncc4c(N5CCCNC(=O)C5)nc(OCC5(CN6CCC(CN7CCN(c8ccc9c(c8)CN([C@H]8CCC(=O)NC8=O)C9=O)CC7)CC6)CC5)nc4c3F)c12 [US20250092039, Compound 95]"
